# Tests used:
# rat model of colitis [1] = test: Rat model of colitis (TNBS-induced), incidence of diarrhea, enema (intra-rectal) administration; type: in vivo; details: for incidence of diarrhea: vehicle control 73.9%
# Description: A rat model of colitis was prepared in accordance with the method by Morris et al. (Morris GP et al., Hapten-induced model of chronic inflammation and ulceration in the rat colon. Gasteroenterology, 96: 795-803, 1989). Specifically, the rats were fasted for approximately 24 hr and anesthetized with ether. A Teflon catheter (registered trade mark) was inserted into the lumen of the colon via the anus. The tip of the catheter was advanced to 8 cm from the anus, and 0.25 ml of TNBS solution (final concentration of 60 mg/mL in 50% ethanol) was injected into the colon. Rats were held in a vertical position for 30 seconds after TNBS injection (Day-0). One day after an injection of TNBS (Day-1), rats were randomly allocated to the four groups described below based on body weight using a stratified random sampling method. The groups were as follows: The pharmacologically active ingredient and its vehicle were delivered at 8 cm orad to the anal verge of conscious rats through a Teflon catheter (registered trade mark) inserted into the lumen of the colon via the anus. They were administered once daily in the morning for 7 consecutive days from Day-1. On the Day-B, the rats were anesthetized with ether, and sacrificed by exsanguination. The colon, from the end of the cecum to the anus, was excised, opened by a longitudinal incision, and the feces were macroscopically assessed at the excision of colons. When feces were not solid, it ws judged as diarrhea. Rats with no feces in the colon were excluded from diarrhea evaluation. The results of the incidence of diarrhea were expressed as the proportion of rats with diarrhea in each group. Statistical analysis was performed between the vehicle control group (Group A) and the groups administered with the pharmacologically active ingredient (Group B to D) using Fisher's exact test (two-sided) to which Bonferroni correction, which takes multiplicity into consideration, was applied. Statistical significance is defined as p<0.05.
# rat model of colitis [2] = test: Rat model of colitis (TNBS-induced), incidence of diarrhea, oral administration; type: in vivo
# Description: A rat model of colitis was prepared in accordance with the method by Morris et al. (Morris GP et al., Hapten-induced model of chronic inflammation and ulceration in the rat colon. Gasteroenterology, 96: 795-803, 1989). Specifically, the rats were fasted for approximately 24 hr and anesthetized with ether. A Teflon catheter (registered trade mark) was inserted into the lumen of the colon via the anus. The tip of the catheter was advanced to 8 cm from the anus, and 0.25 ml of TNBS solution (final concentration of 60 mg/mL in 50% ethanol) was injected into the colon. Rats were held in a vertical position for 30 seconds after TNBS injection (Day-0).
# On the Day-B, the rats were anesthetized with ether, and sacrificed by exsanguination. The colon, from the end of the cecum to the anus, was excised, opened by a longitudinal incision, and the feces were macroscopically assessed at the excision of colons. When feces were not solid, it ws judged as diarrhea. Rats with no feces in the colon were excluded from diarrhea evaluation.
smiles,measurement,setting,value
"CCOc1ccc(-c2nc(-c3cccc(C(=O)O)n3)cs2)cc1OCC [pharmacologically active ingredient, 6-[2-(3,4-diethoxyphenyl)thiazol-4-yl]pyridine-2-carboxylic acid]",incidence of diarrhea,"rat model of colitis [1]; Group B, 0.1 mg/kg/day enema once daily for 7 consecutive days from Day-1",33.3%
same,incidence of diarrhea,"rat model of colitis [1]; Group C, 0.3 mg/kg/day enema once daily for 7 consecutive days from Day-1",20.0%
same,incidence of diarrhea,"rat model of colitis [1]; Group D, 1 mg/kg/day enema once daily for 7 consecutive days from Day-1",20.0%
same,incidence of diarrhea compared with the vehicle control group,"rat model of colitis [1]; Groups B to D, 0.1 to 1 mg/kg/day enema, Fisher's exact test with Bonferroni correction, p<0.05",suppressed significantly
same,"amount with significant disorder-suppressing effect, intra-rectal relative to oral administration","rat model of colitis [1]; intra-rectal versus oral, rat model of colitis",one tenth
same,incidence of diarrhea with oral administration,rat model of colitis [2]; 1 mg/kg/day,significantly effective
same,incidence of diarrhea with oral administration,rat model of colitis [2]; lower than 1 mg/kg/day,no significant decrease
